Laboratory results published in US7253295B2, “Chloride channel opener” (Sucampo AG, priority 2001, dated 2007).

What follows are molecules tested against T1, recombinant human ClC-2 Chloride Channels (Homo sapiens, UniProt P51788) (assay: Whole cell patch clamp, ClC-2 transfected HEK cells, current increase (Test Example 4)). Conditions: 100 nM, change from control.
T1 construct: His; T7; expressed in transfected cells; host or cells: HEK-293 (ATCC), pcDNA3.1, G-418 selected
T1 sequence (P51788 1-898): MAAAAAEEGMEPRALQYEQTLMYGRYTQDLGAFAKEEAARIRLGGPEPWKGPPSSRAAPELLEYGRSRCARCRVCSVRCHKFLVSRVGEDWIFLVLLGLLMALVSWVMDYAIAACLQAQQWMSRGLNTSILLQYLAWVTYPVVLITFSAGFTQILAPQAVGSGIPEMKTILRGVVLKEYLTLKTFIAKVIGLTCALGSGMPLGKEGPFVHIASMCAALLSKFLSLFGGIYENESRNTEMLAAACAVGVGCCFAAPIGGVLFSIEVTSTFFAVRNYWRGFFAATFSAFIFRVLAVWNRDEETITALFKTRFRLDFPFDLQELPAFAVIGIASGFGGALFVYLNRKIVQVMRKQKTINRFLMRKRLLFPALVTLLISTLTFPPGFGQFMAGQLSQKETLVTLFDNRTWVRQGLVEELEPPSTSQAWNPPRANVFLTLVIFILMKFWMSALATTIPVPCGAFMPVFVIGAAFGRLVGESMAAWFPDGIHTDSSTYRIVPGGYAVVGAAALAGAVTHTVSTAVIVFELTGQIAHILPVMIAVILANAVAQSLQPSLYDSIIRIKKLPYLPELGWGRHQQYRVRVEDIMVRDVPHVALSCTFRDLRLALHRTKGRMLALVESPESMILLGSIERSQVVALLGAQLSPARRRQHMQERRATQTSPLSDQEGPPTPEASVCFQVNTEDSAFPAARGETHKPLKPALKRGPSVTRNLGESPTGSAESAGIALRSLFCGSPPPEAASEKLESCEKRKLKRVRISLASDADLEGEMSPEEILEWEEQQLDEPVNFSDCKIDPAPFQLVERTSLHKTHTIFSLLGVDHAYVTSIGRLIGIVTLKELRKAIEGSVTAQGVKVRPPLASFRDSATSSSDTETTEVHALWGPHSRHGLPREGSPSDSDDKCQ
Type: cell-based
Description: According to the same manner as described in Example 1, whole cell patch clamp measurements were carried out.
Test compounds were used at a final concentration of 100 nM.

SMILES | Activation of ClC-2 channels ΔpA/pF
CCCCC(F)(F)C(O)CC[C@H]1[C@H](O)CC(=O)[C@@H]1CCCCCCC(=O)O (stereo partly shown) [Compound 8, 13,14-dihydro-16,16-difluoro-PGE1] | 24.6 pA/pF
CCCCC(F)(F)C1(O)CC[C@@H]2[C@@H](CCCCCCC(=O)NCC)[C@@H](O)C[C@H]2O1 (stereo partly drawn) [Compound 9, N1-ethyl-7-[(2,4aR,5R,6S,7aR)-2-(1,1-difluoropentyl)-2,6-dihydroxyperhydrocyclopenta[b]pyran-5-yl]heptanamide] | 38.2 pA/pF

The molecules below were run on AS-HBE cells (assay: Short-circuit current in AS-HBE cells (Test Example 3)). Conditions: 250 nM.
Type: cell-based, human
Description: AS-HBE is a human bronchial epithelial (HBE) cell line expressing the first 131 nucleotides of CFTR in the antisense direction (antisense CFTR 16HBE14o- cells, HBE-AS; also called AS-HBE). As a result, AS-HBE cells lack CFTR transcripts and lack functional CFTR. However, AS-HBE cells do express functional ClC-2 in a manner identical to the parental cell line, 16HBE14o- cells, from which they were derived. AS-HBE cells were maintained at 37° C. in 5%/95% CO2/O2 in Minimal Essential Medium (MEM; GIBCO/Invitrogen, Carlsbad, Calif.) supplemented with Earl's salt, L-glutamine (GIBCO/Invitrogen), 10% heat-inactivated fetal bovine serum, 100 units/ml penicillin, 100 μg/ml streptomycin sulfate and 400 μg/ml G-418 (GIBCO/Invitrogen). The cells were grown in air-liquid interface on Biocoat inserts (Fisher Scientific, Chicago, Ill.), coated with human plasma fibronectine (GIBCO/Invitrogen) and vitrogen (Cohesion Technologies, Palo Alto, Calif.).
According to the same manner as described in Example 2, Short-circuit current measurements in the AS-HBE cells were carried out. Changes in short-circuit current (ΔIsc) were normalized to the filter area (0.3 cm^2) and reported as ΔIsc/cm^2.
Test compounds were used at a final concentration of 250 nM.

SMILES | Changes in short-circuit currents (Δlsc)
CCCCC(F)(F)C(=O)/C=C/[C@H]1[C@H](O)CC(=O)[C@@H]1CCCCCCC(=O)O [Compound 4, 15-keto-16,16-difluoro-PGE1] | 1.0 μA/cm^2
CCCCC[C@H](O)/C=C/[C@@H]1[C@@H](C/C=C\CCCC(=O)O)[C@@H](O)C[C@H]1O [Compound 6, PGF2α, reference compound] | 0.7 μA/cm^2
CCCCC(F)(F)C1(O)CC[C@H]2[C@@H](CC(=O)[C@@H]2CCCCCCC(=O)NCC)O1 (stereo partly drawn) [Compound 3, N1-ethyl-7-[(2,4aR,5R,7aR)-2-(1,1-difluoropentyl)-2-hydroxy-6-oxoperhydrocyclopenta[b]pyran-5-yl]heptanamide] | 2.7 μA/cm^2
CCCCC[C@H](O)/C=C/[C@@H]1[C@H]2C/C(=C/CCCC(=O)[O-])O[C@H]2C[C@H]1O.[Na+] [Compound 7, PGI2-Na, reference compound] | 1.0 μA/cm^2
CCCCCCC(F)(F)C1(O)CC[C@H]2[C@@H](CC(=O)[C@@H]2CCCCCCCCC(=O)OC(C)C)O1 (stereo partly drawn) [Compound 5, Isopropyl (−)-9-[(4aR,5R,7aR)-2-(1,1-difluoroheptyl)-2-hydroxy-6-oxoperhydrocyclopenta[b]pyran-5-yl]nonanoate] | 0.3 μA/cm^2
